Reference: patent US10538555B2, “Macrocyclic inhibitors of the PD-1/PD-L1 and CD80(B7-1)/PD-L1 protein/protein interactions” (BRISTOL-MYERS SQUIBB COMPANY, priority 2014, dated 2020)
Where two headings read alike, the source gives them in different places.

Biological target: T1, Human PD-L1/PD-1 (Homo sapiens, UniProt Q9NZQ7)
T1 construct: TVMV protease cleavage site (C); made in house; host or cells: HEK293T cells
Assay: HTRF Human PD-L1/PD-1 binding assay (PD-1-Ig/PD-L1-His)
Conditions: PD-L1-His 10 nM, PD-1-Ig 20 nM
Source text: Methods for Testing the Ability of Macrocyclic Peptides to Compete for the Binding of PD-1 to PD-L1 Using Homogenous Time-Resolved Fluorescence (HTRF) Binding Assays
The ability of the macrocyclic peptides of the present disclosure to bind to PD-L1 was investigated using a PD-1/PD-L1 Homogenous Time-Resolved Fluorescence (HTRF) binding assay.
Homogenous Time-Resolved Fluorescence (HTRF) Assays of Binding of Soluble PD-1 to Soluble PD-L1. Soluble PD-1 and soluble PD-L1 refers to proteins with carboxyl-end truncations that remove the transmembrane-spanning regions and are fused to heterologous sequences, specifically the Fc portion of the human immunoglobuling G sequence (Ig) or the hexahistidine epitope tag (His). All binding studies were performed in an HTRF assay buffer consisting of dPBS supplemented with 0.1% (w/v) bovine serum albumin and 0.05% (v/v) Tween-20. For the PD-1-Ig/PD-L1-His binding assay, inhibitors were pre-incubated with PD-L1-His (10 nM final) for 15 m in 4 μl of assay buffer, followed by addition of PD-1-Ig (20 nM final) in 1 μl of assay buffer and further incubation for 15 m. PD-L1 fusion proteins from either human, cynomolgus macaques, or mouse were used. HTRF detection was achieved using europium crypate-labeled anti-Ig monoclonal antibody (1 nM final) and allophycocyanin (APC) labeled anti-His monoclonal antibody (20 nM final). Antibodies were diluted in HTRF detection buffer and 5 μl was dispensed on top of binding reaction. The reaction was allowed to equilibrate for 30 minutes and signal (665 nm/620 nm ratio) was obtained using an EnVision fluorometer. Additional binding assays were established between PD-1-Ig/PD-L2-His (20 and 5 nM, respectively), CD80-His/PD-L1-Ig (100 and 10 nM, respectively) and CD80-His/CTLA4-Ig (10 and 5 nM, respectively). Competition studies between biotinylated Compound No. 71 and human PD-L1-His were performed as follows. Macrocyclic peptide inhibitors were pre-incubated with PD-L1-His (10 nM final) for 60 minutes in 4 μl of assay buffer followed by addition of biotinylated Compound No. 71 (0.5 nM final) in 1 μl of assay buffer. Binding was allowed to equilibrate for 30 minutes followed by addition of europium crypated labeled Streptavidin (2.5 pM final) and APC-labeled anti-His (20 nM final) in 5 μl of HTRF buffer. The reaction was allowed to equilibrate for 30 m and signal (665 nm/620 nm ratio) was obtained using an EnVision fluorometer.
Recombinant Proteins. Carboxyl-truncated human PD-1 (amino acids 25-167) with a C-terminal human Ig epitope tag [hPD-1 (25-167)-3S-IG] and human PD-L1 (amino acids 18-239) with a C-terminal His epitope tag [hPD-L1([…])-tobacco vein mottling virus protease cleavage site (TVMV)-His] were expressed in HEK293T cells and purified sequentially by rProteinA affinity chromatography and size exclusion chromatography.

[1] = class symbol, read-out: HTRF Human PD-L1/PD-1 Binding Assay IC50 Range

T1 sequence (Q9NZQ7 with tags, fused parts or gaps): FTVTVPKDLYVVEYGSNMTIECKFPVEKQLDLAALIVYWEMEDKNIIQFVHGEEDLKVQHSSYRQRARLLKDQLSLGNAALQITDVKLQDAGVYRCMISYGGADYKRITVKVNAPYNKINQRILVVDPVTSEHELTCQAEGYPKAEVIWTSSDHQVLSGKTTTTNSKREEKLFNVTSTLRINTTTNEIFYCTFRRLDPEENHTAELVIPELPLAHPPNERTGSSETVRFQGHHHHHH

Row | Structure (SMILES) | IC50 [1] [µM] | IC50 (read-out: HTRF Human PD-L1/PD-1 Binding Assay IC50) [µM]
1 | CCCC[C@H]1C(=O)N(C)CC(=O)N[C@@H](CC(=O)O)C(=O)NC(C(C)c2ccccc2)C(=O)N(C)[C@@H](Cc2ccccc2)C(=O)N[C@@H](Cc2ccc(O)cc2)C(=O)N(C)CC(=O)N[C@@H](Cc2c[nH]c3ccccc23)C(=O)N[C@@H](Cc2ccc(O)cc2)C(=O)N[C@@H](CC(C)C)C(=O)N[C@H](C(=O)NCC(N)=O)CSCC(=O)N[C@@H](Cc2ccccc2)C(=O)N(C)[C@@H](Cc2ccccc2)C(=O)N1C (single isomer, unassigned) [Example 3230-A] | 1 to 10 | 
2 | CCCC[C@H]1C(=O)N(C)CC(=O)N[C@@H](CC(=O)O)C(=O)NC(C(C)c2ccccc2)C(=O)N(C)[C@@H](Cc2ccccc2)C(=O)N[C@@H](Cc2ccc(O)cc2)C(=O)N(C)CC(=O)N[C@@H](Cc2c[nH]c3ccccc23)C(=O)N[C@@H](Cc2ccc(O)cc2)C(=O)N[C@@H](CC(C)C)C(=O)N[C@H](C(=O)NCC(N)=O)CSCC(=O)N[C@@H](Cc2ccccc2)C(=O)N(C)[C@@H](Cc2ccccc2)C(=O)N1C (single isomer, unassigned) [Example 3230-B] | 0.1 to 0.99 | 
3 | CCCC[C@H]1C(=O)N(C)CC(=O)N[C@@H](CC(=O)O)C(=O)NC(C(C)c2ccccc2)C(=O)N(C)[C@@H](Cc2ccccc2)C(=O)N[C@@H](Cc2ccc(O)cc2)C(=O)N(C)CC(=O)N[C@@H](Cc2c[nH]c3ccccc23)C(=O)N[C@@H](Cc2ccc(O)cc2)C(=O)N[C@@H](CC(C)C)C(=O)N[C@H](C(=O)NCC(N)=O)CSCC(=O)N[C@@H](Cc2ccccc2)C(=O)N(C)[C@@H](Cc2ccccc2)C(=O)N1C (single isomer, unassigned) [Example 3230-C] | 0.1 to 0.99 | 
4 | CCCC[C@H]1C(=O)N(C)CC(=O)N[C@@H](CC(=O)O)C(=O)NC(C(C)c2ccccc2)C(=O)N(C)[C@@H](Cc2ccccc2)C(=O)N[C@@H](Cc2ccc(O)cc2)C(=O)N(C)CC(=O)N[C@@H](Cc2c[nH]c3ccccc23)C(=O)N[C@@H](Cc2ccc(O)cc2)C(=O)N[C@@H](CC(C)C)C(=O)N[C@H](C(=O)NCC(N)=O)CSCC(=O)N[C@@H](Cc2ccccc2)C(=O)N(C)[C@@H](Cc2ccccc2)C(=O)N1C (single isomer, unassigned) [Example 3230-D] |  | 10
5 | CCCC[C@H]1C(=O)N(C)CC(=O)N[C@@H](CC(N)=O)C(=O)N[C@@H](C(C)C)C(=O)N(C)[C@@H](Cc2ccccc2)C(=O)N[C@@H](Cc2ccc(O)cc2)C(=O)N(C)CC(=O)N[C@@H](Cc2c[nH]c3ccccc23)C(=O)N[C@@H](Cc2ccc(O)cc2)C(=O)N[C@@H](CCCN)C(=O)N[C@H](C(=O)NCC(N)=O)CSCC(=O)N[C@@H](Cc2ccccc2)C(=O)N(C)[C@@H](Cc2ccncc2)C(=O)N1C (single isomer, unassigned) [Example 3638-A] | 1 to 10 | 
6 | CCCC[C@H]1C(=O)N(C)CC(=O)N[C@@H](CC(N)=O)C(=O)N[C@@H](C(C)C)C(=O)N(C)[C@@H](Cc2ccccc2)C(=O)N[C@@H](Cc2ccc(O)cc2)C(=O)N(C)CC(=O)N[C@@H](Cc2c[nH]c3ccccc23)C(=O)N[C@@H](Cc2ccc(O)cc2)C(=O)N[C@@H](CCCN)C(=O)N[C@H](C(=O)NCC(N)=O)CSCC(=O)N[C@@H](Cc2ccccc2)C(=O)N(C)[C@@H](Cc2ccncc2)C(=O)N1C (single isomer, unassigned) [Example 3638-B] | 0.01 to 0.0999 | 
7 | CCCC[C@H]1C(=O)N(C)CC(=O)N[C@@H](CC(=O)O)C(=O)N[C@@H](C(C)C)C(=O)N(C)[C@@H](Cc2ccccc2)C(=O)N[C@@H](Cc2ccc(O)cc2)C(=O)N(C)CC(=O)NC(C)(Cc2c[nH]c3ccccc23)C(=O)N[C@@H](Cc2ccc(O)cc2)C(=O)N[C@@H](CC(C)C)C(=O)N[C@H](C(=O)NCC(N)=O)CSCC(=O)N[C@@H](Cc2ccccc2)C(=O)N(C)[C@@H](Cc2ccccc2)C(=O)N1C (single isomer, unassigned) [Example 3640-A] | 0.1 to 0.99 | 
